Laboratory results: patent US20070135515A1, “Method for producing sorbicillactone a” (priority 2004, published 2007)

Assays:
[1] = tested on: L5178Y mouse lymphoma cells (ATCC CRL 1722); experiment: Genotoxicity: Comet-Assay (alkaline electrophoresis, extent tail moment); assay type: cell-based; conditions: 1, 3, and 10 μg/mL
Protocol: Material: “Normal Melting Agarose” (NMA, Cat.-No. 840041) and “Low Melting Agarose” (LMA, Kat.-Nr. 870081) were obtained from Biozym (Hamburg, Germany), Triton x-100 from Fluka (Buchs S G, Schwitzerland), RPMI1640-medium, DMSO, and EDTA from Sigma-Aldrich (Taufkirchen, Germany), NaCl and Tris from Roth (Karlsruhe, Germany) and foetal calf serum (FCS) from Gibco (Karlsruhe, Germany). Sorbicillactone A of the batch: 2208/2a was used.
Cells: The genotoxicity of sorbicillactone A was tested on L5178Y mouse lymphoma cells (ATCC CRL 1722). As described (Müller et al., 1979, Cancer Res. 39:1102-1107), the cells were cultured in RPMI1640-medium with 10 mM Hepes, which was supplemented with 10% foetal calf serum (FCS). As a concentration of the inoculum, 10^4 cells/mL was chosen. The cells were incubated with 1, 3, and 10 μg/mL sorbicillactone A for 4 and 24 hours. After the incubation, the cells were examined with the “Comet-Assay”.
Alkaline electrophoresis: The object slides (Superfrost) were cleaned with acetone. 1.0-percent “Normal Melting Agarose” (NMA) in 1×PBS was cooked, and subsequently about 600 μl of agarose were applied onto an object slide. The object slides were shortly (˜5 min) dried at 50° C., and stored over night at room temperature. Then, the 0.7-percent “Low Melting Agarose” (LMA) was prepared in distilled water. The second layer on the object slides consisted of 200 μl LMA. […]

[2] = tested on: L5178Y mouse-lymphoma cells (ATCC CRL 1722); experiment: Genotoxicity: Fast Microassay (strand scission factors, PicoGreen); assay type: cell-based
Protocol: Material: PicoGreen was obtained from Molecular Probes (Leiden, The Netherlands), RPMI1640-medium from Sigma-Aldrich (Taufkirchen, Germany), foetal calf serum (FKS) from Gibco (Karlsruhe, Germany), and black microtitre-plates (96-well-plates) from Nunc (Wiesbaden, Germany). Sorbicillactone A of the batch: 2208/2a was used.
Cells: The genotoxicity of sorbicillactone A was tested on L5178Y mouse-lymphoma cells (ATCC CRL 1722). As described (Müller et al., 1979, Cancer Res. 39:1102-1107), the cells were cultured in RPMI1640-medium supplemented with 10% foetal calf serum (FCS). 10^4 cells/mL were chosen as the inoculum concentration. The cells were incubated for 4 and 24 hours with 1, 3, 10, and 30 μg/mL of sorbicillactone A (1). Following the incubation, the cells were examined with the “Fast Microassay”.
“Fast Microassay”: The method was performed according to a modified method (Batel et al., 1999, Anal. Biochem., 270:195-200). The cells were washed with 1×PBS for two times. After centrifugation, the pellet was taken up in 1×PBS and diluted to […]. 25 μl each of the cell suspension (about 2.5×10^4 cells per well) were pre-pipetted into black microtitre-plates (96-well-plates, Nunc, Wiesbaden). 25 μl 1×PBS were in the controls. Then, 25 μl of lysis solution (7 M urea, 0.1% (w/v) SDS, 0.2 M EDTA, pH=10.0) with PicoGreen (20 μl conc. PicoGreen per 1 mL of lysis solution) were pipetted into the microtitre-plate. Subsequently, the cells were lysed for 40 min in the dark at room temperature. After the incubation, the denaturation (unwinding) of the DNA occurs by the addition of freshly prepared alkaline solution. This is produced in that 20 mL 20 mM of EDTA, and 32 mL of 20 mM EDTA/100 mM NaOH are adjusted to a pH-value of 12.3. The measurement took place immediately in a fluoroscan at an excitation wavelength of 485 nm, and an emission wavelength of 520 nm, every 3 to 5 min, 20 min in total. The results were given as “strand scission factors” (SSF), and calculated following a time of denaturation (time of unwinding) of 20 min according to the following equation: SSF=log (% dsDNA-sample/% dsDNA-control).

In the case of `C/C=C/C=C/C(O)=C1/C(=O)C(C)=C(O)[C@@]2(C)OC(=O)[C@@](C)(NC(=O)/C=C/C(=O)O)[C@@H]12` [sorbicillactone A], the “change of the extent tail moment (DNA-strand scissions)” value ([1]; 4 hours incubation, FIG. 2A) was “did not exhibit significant changes”, the “change of the extent tail moment (DNA-strand scissions)” value ([1]; 24 hours incubation, FIG. 2B) was “no significant changes” and the “induction of DNA-strand scissions” value ([2]; 30 μg/mL, 24 hours of incubation) was “induced DNA-strand scissions”. The “effect on the SSF-values (strand scission factors)” value ([2]; 1, 3, 10, and 30 μg/mL, 4 hours of incubation, FIG. 3A) was “nearly no effect”, the “increase of the SSF-values” ([2]; 1 to 10 μg/mL, 24 hours) was “slight, but no significant, increase” and the “increase of the SSF-values (portion of DNA-strand scissions)” value ([2]; 3 and 30 μg/mL, 24 hours, p<0.001, FIG. 3B) was “significant increase”.
